Literature values in patent US7014865B1, “Natural formulation for the treatment and prevention of depression, containing St. John's Wort and derivatives of dihydro- and tetrahydrofolic acid” (Merck Patent GmbH, priority 1998, dated 2006).

Columns and labels:
Settings in all cases: in vitro
[1] = system: uptake of GABA
[2] = system: uptake of dopamine
[3] = system: uptake of serotonin
[4] = system: uptake of noradrenaline
[5] = system: uptake of L-glutamate

hyperforin
potent inhibitor: inhibition of uptake of GABA [1] | inhibition of uptake of dopamine [2] | inhibition of uptake of serotonin [3] | inhibition of uptake of noradrenaline [4] | inhibition of uptake of L-glutamate [5]
